“Also recorded” adds a separate entry of the source.
What was measured:
[1] = Solubility in organic solvents; format: physicochemical
Procedure: Thus, the liquid crystal compound (1-1) can be formed into a film by a spin coating method using a solution in any of these solvents. The film formation was performed as follows in the present example.
Thus, the liquid crystal compound (2-1) can be formed into a film by a spin coating method using a solution in any of these solvents. The film formation was performed as follows in the present example.

[2] = Charge transport properties (carrier mobility) by transient photocurrent measurement, Time-of-Flight (TOF) method; format: physicochemical; conditions: for maximum electron mobility calculated by the TOF method: room temperature (25° C.), sample thickness 9 μm, applied voltage 10 V to 100 V
Procedure: Charge transport properties (carrier mobility properties) of the liquid crystal compound (2-1) ((2), m=1, n=1) obtained in Example 2 were measured by a Time-of-Flight (TOF) method. In this method, while a DC voltage was applied to a sandwich-type sample (liquid crystal cell produced in Example 4) having photoconductivity, the sample was irradiated with a pulse laser to cause photocarriers to be generated on one side of the sample, and a change in displacement current (transient photocurrent) induced in an external circuit when the carriers transited in the sample over time was measured. A constant current was generated by the transit of photocarriers, and when the carriers reached the counter electrode, the current was decayed to 0. The time from a start of decay in transient photocurrent to 0 corresponds to the time required for the carriers to transit in the sample (transit time). When the thickness of the sample is represented by d (cm), an applied voltage is represented by V (volt), and the transit time is represented by tT, mobility p (cm^2/Vs) is represented by the following mathematical expression. When an electrode on the irradiation side is biased to positive, mobility of positive carriers is determined, and when an electrode on the irradiation side is biased to negative, mobility of negative carriers is determined.
The measurement by a Time-of-Flight method was performed as follows. That is, while a voltage was applied to the liquid crystal cell produced in Example 4 at room temperature, the liquid crystal cell was irradiated with a pulse laser (Nd: YAG laser, THG: wavelength of 356 nm, pulse width of 1 ns), and a displacement current induced at the time of the irradiation was measured with a digital oscilloscope. […] In FIG. 7, the horizontal axis indicates time (μs), and the vertical axis indicates a photocurrent (μA). The present sample has favorable photoconductivity, and thus, sufficiently strong current signal could be obtained. […] According to the measurement result, the mobility of negative carriers reached maximum at 1×10^−3 cm^2/Vs at 30° C. This value is higher by an order of magnitude than the mobility of a conjugate polymer-fullerene derivative composite generally used in a bulk hetero junction-type organic thin-film solar battery.
Charge transport properties (carrier mobility properties) of the liquid crystal compound (2-44) ((2), m=0, n=1)) were measured through transient photocurrent measurement by a Time-of-Flight method using the liquid crystal cell produced in Example 8. The transient photocurrent measurement by a Time-of-Flight method was performed in the same manner as in the measurement of charge transport properties (carrier mobility properties) of the liquid crystal compound (2-1) ((2), m=1, n=1). The thickness of a sample of the liquid crystal compound (2-44) ((2), m=0, n=1)) was 25 μm. The measurement temperature was 40° C., and the measurement was performed while changing an applied voltage from 10 V to 100 V by 10 V increments. The graphs of FIGS. 11A and 11B show the results of the measurement. In FIGS. 11A and 11B, the horizontal axis indicates time (μs), and the vertical axis indicates a photocurrent (μA). As shown in FIGS. 11A and 11B, in the same time of flight, the higher the applied voltage was, the higher the photocurrent flowed.
In addition, the same measurement as in FIGS. 11A and 11B was performed with a change in measurement temperature from 25° C. to 130° C. The result of the measurement is shown in a graph of FIG. 12A. In FIG. 12A, the horizontal axis indicates an electric field strength (10^4 V/cm), and the vertical axis indicates carrier mobility (cm^2/Vs). […] Thus, the vertical axis (carrier mobility) is equal to electron mobility.
A result of the measurement at an electric field strength of 4.0×10^4 V/cm in FIG. 12A is shown in a graph of FIG. 12B as a function of time and electron mobility. […]

C[Si](C)(C)O[Si](C)(C)O[Si](C)(C)CCCN1C(=O)c2ccc3c4ccc5c6c(ccc(c7ccc(c2c37)C1=O)c64)C(=O)N(CCC[Si](C)(C)O[Si](C)(C)O[Si](C)(C)C)C5=O [Compound (1-1), perylene tetracarboxylic acid bis(1,1,1,3,3,5,5-heptamethyltrisiloxanylpropylimide)]
solubility in organic solvents [1]: soluble in toluene, chlorobenzene, tetrahydrofuran, chloroform, dichloromethane, and the like; also recorded: high solubility in various organic solvents

C[Si](C)(C)O[Si](C)(C)O[Si](C)(C)CCCCC(CCCC[Si](C)(C)O[Si](C)(C)O[Si](C)(C)C)N1C(=O)c2ccc3c4ccc5c6c(ccc(c7ccc(c2c37)C1=O)c64)C(=O)N(C(CCCC[Si](C)(C)O[Si](C)(C)O[Si](C)(C)C)CCCC[Si](C)(C)O[Si](C)(C)O[Si](C)(C)C)C5=O [Compound (2-1), perylene tetracarboxylic acid bis{di-(1,1,1,3,3,5,5-heptamethyltrisiloxanylbutyl)-methylimide}]
solubility in organic solvents [1]: soluble in ethyl acetate, acetone, cyclohexane, and the like in addition to toluene, chlorobenzene, tetrahydrofuran, chloroform, dichloromethane, and the like; also recorded: high solubility in various organic solvents

C[Si](C)(C)O[Si](C)(C)CCCCC(CCCC[Si](C)(C)O[Si](C)(C)C)N1C(=O)c2ccc3c4ccc5c6c(ccc(c7ccc(c2c37)C1=O)c64)C(=O)N(C(CCCC[Si](C)(C)O[Si](C)(C)C)CCCC[Si](C)(C)O[Si](C)(C)C)C5=O [Compound (2-44)]
electron mobility relative to the maximum electron mobility of liquid crystal compound (2-1) [2]: 100 times higher
maximum electron mobility ([2]; 40° C., electric field strength 4.0×10^4 V/cm, sample thickness 25 μm): 1.2×10^−1 cm^2/Vs
electron mobility at 130° C. relative to the electron mobility at 40° C. ([2]; temperature increased to 130° C.): about a half

C[Si](C)(C)O[Si](C)(C)CCCCCCC(CCCCCC[Si](C)(C)O[Si](C)(C)C)N1C(=O)c2ccc3c4ccc5c6c(ccc(c7ccc(c2c37)C1=O)c64)C(=O)N(C(CCCCCC[Si](C)(C)O[Si](C)(C)C)CCCCCC[Si](C)(C)O[Si](C)(C)C)C5=O [Compound (2-46)]
electron mobility relative to the maximum electron mobility of liquid crystal compound (2-1) [2]: about 10 times higher
maximum electron mobility calculated by the TOF method [2]: 1×10^−2 cm/Vs

C[Si](C)(C)O[Si](C)(C)O[Si](C)(C)CCCCC(CCCC[Si](C)(C)O[Si](C)(C)O[Si](C)(C)C)Oc1ccc(N2C(=O)c3ccc4c5ccc6c7c(ccc(c8ccc(c3c48)C2=O)c75)C(=O)N(c2ccc(OC(CCCC[Si](C)(C)O[Si](C)(C)O[Si](C)(C)C)CCCC[Si](C)(C)O[Si](C)(C)O[Si](C)(C)C)cc2)C6=O)cc1 [Compound (5-1), N—N′-bis(4-(1,9,-di(1,1,1,3,3,5,5-heptamethyltrisiloxanyl)nonane-5-yloxy)phenyl)perylene-3,4,9,10-tetracarboxylic acid bisimide]
maximum electron mobility calculated by the TOF method [2]: 1×10^−4 cm/Vs

C=CCN1C(=O)c2ccc3c4ccc5c6c(ccc(c7ccc(c2c37)C1=O)c64)C(=O)N(CC=C)C5=O [Compound (6), perylene tetracarboxylic acid bis(allylimide)]
solubility in organic solvents [1]: barely dissolved in an organic solvent
